Measurements: EPA's ToxRefDB 2

What was measured:
rat [1] = conditions: Combined chronic toxicity/carcinogenicity, fischer, Oral, Feed, dose end: 2 year, group: systemic
dog = conditions: Chronic toxicity; beagle; Oral; Capsule; dose end: 52 week; group: systemic; systemic / clinical chemistry / thyroxine (t4) / thyroxine (t4), total
rabbit = conditions: Prenatal developmental toxicity study, dutch, Oral, Gavage/Intubation, dose end: 18 GD, group: maternal
mouse [2] = conditions: Chronic toxicity, b6c3f1, Oral, Feed, dose end: 1 year, group: systemic
rat [3] = conditions: Multigenerational reproductive toxicity study, fischer, Oral, Feed, dose end: 2 generation
mouse [4] = conditions: Carcinogenicity, b6c3f1, Oral, Feed, dose end: 2 year, group: systemic
mouse [5] = conditions: Carcinogenicity, b6c3f1, Oral, Feed, dose end: 24 month, group: systemic
mouse [6] = conditions: Subchronic oral toxicity in rodents, b6c3f1, Feed, dose end: 90 day, group: systemic, systemic / clinical chemistry / glucose / glucose + systemic / in life observation / body weight / body weight gain + systemic / clinical …
rat [7] = conditions: Subchronic oral toxicity in rodents, fischer, Feed, dose end: 90 day, group: systemic
mouse [8] = conditions: Subchronic oral toxicity in rodents, b6c3f1, Feed, dose end: 90 day, group: systemic
rat [9] = conditions: Prenatal developmental toxicity study, sprague dawley, Oral, Gavage/Intubation, dose end: 17 GD
[10] = systemic / hematology / erythrocyte (rbc) count differential / erythrocyte (rbc) + systemic / hematology / hematocrit (hct) / hematocrit (…
[11] = systemic / pathology microscopic / mammary gland / fibroadenoma
[12] = systemic / in life observation / food consumption / food consumption + reproductive / offspring survival early / litter size / litter size…
[13] = systemic / in life observation / food consumption / food consumption + systemic / in life observation / body weight / body weight gain
[14] = systemic / pathology microscopic / kidney / pyelonephritis + systemic / pathology microscopic / urinary bladder / inflammation + systemic / …
[15] = group: offspring, systemic / in life observation / body weight / offspring (pup) weight
[16] = group: parental, systemic / organ weight / kidney / absolute + systemic / organ weight / kidney / relative to body weight + systemic / pathology microscopic…
[17] = systemic / in life observation / body weight / body weight gain
[18] = systemic / organ weight / uterus / absolute
[19] = systemic / in life observation / body weight / body weight gain + systemic / organ weight / uterus / absolute + systemic / organ weight / …
[20] = systemic / organ weight / kidney / absolute + systemic / organ weight / kidney / relative to body weight + systemic / pathology microscopic…
[21] = systemic / urinalysis / sediment microscopic / crystalluria + systemic / urinalysis / ph / ph
[22] = systemic / in life observation / body weight / body weight + systemic / organ weight / spleen / absolute
[23] = group: developmental, developmental / developmental malformation / bone / incomplete ossification + systemic / in life observation / body weight / fetal weight
[24] = group: developmental, developmental / developmental malformation / bone / incomplete ossification + systemic / in life observation / body weight / fetal weight + …
[25] = group: maternal, reproductive / reproductive performance / preimplantation loss / preimplantation loss + systemic / in life observation / body weight / body …

CCCN(CCC)c1c([N+](=O)[O-])cc(S(N)(=O)=O)cc1[N+](=O)[O-] [Oryzalin] showed an LOAEL (rat [1]; [10]) of 42.9 mg/kg/day, an NOAEL (rat [1]; [10]) of 13.8 mg/kg/day and an LEL (rat [1]; [11]) of 13.8 mg/kg/day. The NEL (rat [1]; [11]) was < 13.8 mg/kg/day, the LEL (dog) was 1.5 mg/kg/day and the LOAEL (dog) was 15 mg/kg/day. The NEL (dog) was < 1.5 mg/kg/day, the NOAEL (dog) was 5 mg/kg/day and the LEL (rabbit; [12]) was 55 mg/kg/day. The LOAEL (rabbit; [12]) was 55 mg/kg/day, the NEL (rabbit; [13]) was 25 mg/kg/day and the NOAEL (rabbit; [13]) was 25 mg/kg/day. The LEL (mouse [2]; systemic / clinical chemistry / creatinine / creatinine + systemic / clinical chemistry / urea nitrogen / urea nitrogen) was 193 mg/kg/day, the NEL (mouse [2]; systemic / clinical chemistry / creatinine / creatinine + systemic / clinical chemistry / urea nitrogen / urea nitrogen + systemic / …) was 71 mg/kg/day and the LOAEL (mouse [2]; [14]) was > 521 mg/kg/day. The NOAEL (mouse [2]; [14]) was ≥ 521 mg/kg/day, the LEL (rat [3]; [15]) was 179 mg/kg/day and the LOAEL (rat [3]; [15]) was 179 mg/kg/day. It also gave an NEL (rat [3]; [15]) of 58.7 mg/kg/day, an NOAEL (rat [3]; [15]) of 58.7 mg/kg/day and an LOAEL (rat [3]; [16]) of 19.4 mg/kg/day. The NOAEL (rat [3]; [16]) was < 19.4 mg/kg/day, the LOAEL (mouse [4]; [17]) was 287 mg/kg/day and the NOAEL (mouse [4]; [17]) was 104 mg/kg/day. For the same compound, the LEL (mouse [4]; [18]) was 112 mg/kg/day, the NEL (mouse [4]; systemic / organ weight / uterus / absolute + systemic / clinical chemistry / glucose / glucose + systemic / hematology / hematocrit (hct…) was 42.2 mg/kg/day and the LOAEL (mouse [5]; [17]) was 521 mg/kg/day. It also gave an NEL (mouse [5]; [19]) of 71 mg/kg/day, an NOAEL (mouse [5]; [19]) of 193 mg/kg/day and an LEL (mouse [5]; [18]) of 193 mg/kg/day. For the same compound, the LEL (mouse [6]) was 1430 mg/kg/day, the LOAEL (mouse [6]) was > 1430 mg/kg/day and the NEL (mouse [6]) was < 1430 mg/kg/day. The NOAEL (mouse [6]) was ≥ 1430 mg/kg/day, the LOAEL (rat [7]; [20]) was 45.9 mg/kg/day and the NOAEL (rat [7]; [20]) was 4.56 mg/kg/day. For the same compound, the LEL (rat [7]; [21]) was 4.56 mg/kg/day, the NEL (rat [7]; [21]) was < 4.56 mg/kg/day and the LOAEL (mouse [8]; systemic / in life observation / body weight / body weight) was 1140 mg/kg/day. The LEL (mouse [8]; [22]) was 1140 mg/kg/day, the NEL (mouse [8]; [22]) was 521 mg/kg/day and the NOAEL (mouse [8]; [22]) was 521 mg/kg/day. The LEL (rat [9]; [23]) was 225 mg/kg/day, the LOAEL (rat [9]; [23]) was 225 mg/kg/day and the NEL (rat [9]; [24]) was 50 mg/kg/day. The NOAEL (rat [9]; [24]) was 50 mg/kg/day, the LEL (rat [9]; [25]) was 225 mg/kg/day and the LOAEL (rat [9]; [25]) was 225 mg/kg/day. The NEL (rat [9]; [25]) was 50 mg/kg/day and the NOAEL (rat [9]; [25]) was 50 mg/kg/day.
